We go through 20 compounds from US8129546B2, “Derivatives for modulation of ion channels” (Vertex Pharmaceuticals Incorporated, priority 2005, dated 2012).

In the first assay the test system is voltage-gated sodium ion channels (NaV). The assay is described as follows: Assays for detecting and measuring NaV inhibition (Table 3 activity). In kind it is cell-based. As to conditions: NaV subtype and assay format not stated. As to the method: Compounds of the invention are useful as antagonists of voltage-gated sodium ion channels. Antagonist properties of test compounds were assessed as follows. Cells expressing the NaV of interest were placed into microtiter plates. After an incubation period, the cells were stained with fluorescent dyes sensitive to the transmembrane potential. The test compounds were added to the microtiter plate. The cells were stimulated with either a chemical or electrical means to evoke a NaV dependent membrane potential change from unblocked channels, which was detected and measured with trans-membrane potential-sensitive dyes. Antagonists were detected as a decreased membrane potential response to the stimulus. The optical membrane potential assay utilized voltage-sensitive FRET sensors described by Gonzalez and Tsien (See, Gonzalez, J. E. and R. Y. Tsien (1995) “Voltage sensing by fluorescence resonance energy transfer in single cells” Biophys J 69(4): 1272-80, and Gonzalez, J. E. and R. Y. Tsien (1997) “Improved indicators of cell membrane potential that use fluorescence resonance energy transfer” Chem Biol 4(4): 269-77) in combination with instrumentation for measuring fluorescence changes such as the Voltage/Ion Probe Reader (VIPR®) (See, Gonzalez, J. E., K. Oades, et al. (1999) “Cell-based assays and instrumentation for screening ion-channel targets” Drug Discov Today 4(9): 431-439).
VIPR® Optical Membrane Potential Assay Method with Chemical Stimulation
24 hours before the assay on VIPR, CHO cells […] expressing a NaV1.2 type voltage-gated NaV are seeded in 96-well poly-lysine coated plates at 60,000 cells per well. Other subtypes are performed in an analogous mode in a cell line expressing the NaV of interest. • 1) On the day of the assay, medium is aspirated and cells are washed twice with 225 μL of Bath Solution #2 (BS#2). • 2) A 15 μM CC2-DMPE solution is prepared by mixing 5 mM coumarin stock solution with 10% Pluronic 127 1:1 and then dissolving the mix in the appropriate volume of BS#2. • 3) After bath solution is removed from the 96-well plates, the cells are loaded with 80 μL of the CC2-DMPE solution. Plates are incubated in the dark for 30 minutes at room temperature. • 4) While the cells are being stained with coumarin, a […] oxonol solution in BS#2 is prepared. In addition to DiSBAC2(3), this solution should contain 0.75 mM ABSC1 and […] veratridine (prepared from 10 mM EtOH stock, Sigma #V-5754). • 5) After 30 minutes, CC2-DMPE is removed and the cells are washed twice with 225 μL of BS#2. As before, the residual volume should be 40 μL. • 6) Upon removing the bath, the cells are loaded with 80 μL of the DiSBAC2(3) solution, after which test compound, dissolved in DMSO, is added to achieve the desired test concentration to each well from the drug addition plate and mixed thoroughly. The volume in the well should be roughly 121 μL. The cells are then incubated for 20-30 minutes. • 7) Once the incubation is complete, the cells are ready to be assayed on VIPR® with a sodium addback protocol. 120 μL of Bath solution #1 is added to stimulate the NaV dependent depolarization. […] tetracaine was used as an antagonist positive control for block of the NaV channel. Analysis of VIPR® Data:
Data are analyzed and reported as normalized ratios of background-subtracted emission intensities measured in the 460 nm and 580 nm channels. Background intensities are then subtracted from each assay channel. Background intensities are obtained by measuring the emission intensities during the same time periods from identically treated assay wells in which there are no cells. The response as a function of time is then reported as the ratios obtained using the following formula: […]
The data is further reduced by calculating the initial (Ri) and final (Rf) ratios. These are the average ratio values during part or all of the pre-stimulation period, and during sample points during the stimulation period. […]
Take `CC(C(=O)N1CCC(S(=O)(=O)Nc2ccccc2)CC1)n1ccc2ccccc21` (centres unmarked) [Compound 3, 1-[2-(1H-Indol-1-yl)propanoyl]-N-phenyl-piperidine-4-sulfonamide]: the IC50 was in the range of 5 to 20 µM.

Take `O=C(COc1ccnc2c(C(F)(F)F)cccc12)N1CCC(S(=O)(=O)N2CCCC2)C1` (centres unmarked) [Compound 11, 1-(3-Pyrrolidin-1-ylsulfonylpyrrolidin-1-yl)-2-[[8-(trifluoromethyl)-4-quinoly]oxy]ethanone]: the IC50 was over 20 µM.

`O=C(CCn1ccc2cc(Cl)ccc21)N1CCC(S(=O)(=O)NCc2ccccc2)CC1` [Compound 19]: the IC50 was 5 to 20 µM. As to `O=C(CCn1ccc2cc(Cl)ccc21)N1CCC(S(=O)(=O)Nc2ccccc2)CC1` [Compound 2, 1-[3-(5-chloro-1H-indol-1-yl)propanoyl]-N-phenyl-piperidine-4-sulfonamide], the concentration for half-maximal inhibition (IC50) was 5 to 20 µM. On the same count and under the same terms, then `O=C(CCn1ccc2cc(Cl)ccc21)N1CCC(S(=O)(=O)Nc2ccccc2)C1` (centres unmarked) [Compound 16], with 5 to 20 µM.

`CNS(=O)(=O)C1CCN(C(=O)COc2ccnc3c(C(F)(F)F)cccc23)CC1` [Compound 23]: the concentration for half-maximal inhibition (IC50) is over 20 µM. On the same count and under the same terms, then `O=C(COc1ccnc2c(C(F)(F)F)cccc12)N1CCC(S(=O)(=O)NCc2ccccc2)C1` (centres unmarked) [Compound 14], with 5 to 20 µM; and `O=C(COc1ccnc2c(C(F)(F)F)cccc12)N1CCC(S(=O)(=O)N2CCCC2)CC1` [Compound 20], with over 20 µM. Consider `O=C(COc1ccc(F)c(Cl)c1)N1CCC(S(=O)(=O)Nc2ccccc2)C1` (centres unmarked) [Compound 15], for which the concentration for half-maximal inhibition (IC50) is 5 to 20 µM. `CC(C(=O)N1CCC(S(=O)(=O)N2CCCC2)C1)n1ccc2ccccc21` (centres unmarked) [Compound 21]: the half-maximal inhibitory concentration (IC50) was over 20 µM. As to `CNS(=O)(=O)C1CCN(C(=O)C(C)n2ccc3ccccc32)CC1` (centres unmarked) [Compound 1], the Activity result is reported as “None”. Take `O=C(CCn1ccc2cc(Cl)ccc21)N1CCC(S(=O)(=O)N2CCCC2)C1` (centres unmarked) [Compound 10, 3-(5-Chloro-1H-indol-1-yl)-1-(3-pyrrolidin-1-ylsulfonylpyrrolidin-1-yl)-propan-1-one]: the IC50 lay in the range of 5 to 20 µM. Same read-out and setting: then `O=C(COc1ccc(F)c(Cl)c1)N1CCC(S(=O)(=O)NCc2ccccc2)CC1` [Compound 4, N-Benzyl-1-[2-(3-chloro-4-fluoro-phenoxy)acetyl]-piperidine-4-sulfonamide], with 5 to 20 µM; and `CC(C(=O)N1CCC(S(=O)(=O)Nc2ccccc2)C1)n1ccc2ccccc21` (centres unmarked) [Compound 12, 1-[2-(1H-Indol-1-yl)propanoyl]-N-phenyl-pyrrolidine-3-sulfonamide], with 5 to 20 µM; and `CN(C)S(=O)(=O)C1CCN(C(=O)CCn2ccc3cc(Cl)ccc32)CC1` [Compound 7, 1-[3-(5-Chloro-1H-indol-1-yl)propanoyl]-N,N-dimethyl-piperidine-4-sulfonamide], with over 20 µM.

As to `CC(C(=O)N1CCC(S(=O)(=O)NCc2ccccc2)C1)n1ccc2ccccc21` (centres unmarked) [Compound 17], the IC50 fell in the range of 5 to 20 µM.

As to `O=C(COc1ccc(F)c(Cl)c1)N1CCC(S(=O)(=O)NCc2ccccc2)C1` (centres unmarked) [Compound 13, N-Benzyl-1-[2-(3-chloro-4-fluoro-phenoxy)acetyl]-pyrrolidine-3-sulfonamide], the IC50 lay in the range of 5 to 20 µM. For `O=C(COc1ccc(F)c(Cl)c1)N1CCC(S(=O)(=O)N2CCCC2)C1` (centres unmarked) [Compound 18], the IC50 is over 20 µM.

For the compound `O=C(COc1ccnc2c(C(F)(F)F)cccc12)N1CCC(S(=O)(=O)NCc2ccccc2)CC1` [Compound 5, N-Benzyl-1-[2-[[8-(trifluoromethyl)-4-quinolyl]oxy]acetyl]-piperidine-4-sulfonamide], the IC50 is over 20 µM.

Test system in the next assay: not given
Assay: not given
As to conditions: neuropathic pain; cited from earlier work.
Take `NCC1(CC(=O)O)CCCCC1` [Gabapentin]: the “share of patients in whom it works” value is on record as 60%.
